Measured values as given in ChEMBL document CHEMBL1149353, “Exploring alternative Zn-binding groups in the design of HDAC inhibitors: squaric acid, N-hydroxyurea, and oxazoline analogues of SAHA” (Bioorg Med Chem Lett, 2006).
Active and inactive are the calls of the source. The calls are words filed in the database; no cut-off is given here.

Molecular target: Histone deacetylase (Homo sapiens) (UniProt Q13547+O15379+Q9UBN7+Q92769+Q9UQL6+Q8WUI4+Q9BY41+Q96DB2+P56524+Q9UKV0+Q969S8)
Test: Inhibition of HDAC at <1 uM
Format: protein assay

Activity, inactive:
O=C(CCCCNc1c(O)c(=O)c1=O)Nc1ccccc1, O=C(CCCCC/N=c1/c(S)c(O)c1=O)Nc1ccccc1, CSc1c(NCCCCC(=O)Nc2ccccc2)c(=O)c1=O, CSc1c(NCCCCCCC(=O)Nc2ccccc2)c(=O)c1=O, O=C(CCCCCCNc1c(O)c(=O)c1=O)Nc1ccccc1, O=C(CCCCCCC1=N[C@@H](COCc2ccccc2)CO1)Nc1ccccc1, O=C(CCCC/N=c1/c(S)c(O)c1=O)Nc1ccccc1, CSc1c(NCCCCCC(=O)Nc2ccccc2)c(=O)c1=O, COc1ccc(COC(CCCCCNC(=O)NO)C(=O)Nc2ccccc2)cc1 (stereo not drawn), O=C(CCCCCNc1c(O)c(=O)c1=O)Nc1ccccc1, CN(O)c1c(SCCCCC(=O)Nc2ccccc2)c(=O)c1=O, O=C(CCCCCC/N=c1/c(S)c(O)c1=O)Nc1ccccc1, O=C(CCCCCCC1=N[C@@H](CO)CO1)Nc1ccccc1
